Results from ChEMBL document CHEMBL5727076, “GDF-8 inhibitors” (2018).

Assays:
[1] = molecular target: TGF-beta receptor type-1 (Homo sapiens, UniProt P36897, T204D); assay: The reaction is incubated for 1 hour at room temperature and the HTRF signal was measured on an Envision plate reader (Ex: 340 nm; Em: 520 nm/495 nm). Inhibition data were calculated by comparison to no enzyme control reactions for 100% inhibition and vehicle-only reactions for 0% inhibition. The final concentration of reagents in the assay are 1 nM HIS-TGFβR1 T204D or HIS-TGFβR2 WT, 0.2 nM anti-HIS detection antibody, labeled small molecule probe (at Kd) and 0.5% DMSO. Dose response curves were generated to determine the concentration required inhibiting 50% of kinase activity (IC50). Compounds were dissolved at 10 mM in dimethylsulfoxide (DMSO) and evaluated at eleven concentrations.
[2] = molecular target: TGF-beta receptor type-2 (Homo sapiens, UniProt P37173); assay: Compounds were dissolved at 10 mM in dimethylsulfoxide (DMSO) and evaluated at eleven concentrations.
Sequence of TGF-beta receptor type-2 (P37173 whole entry): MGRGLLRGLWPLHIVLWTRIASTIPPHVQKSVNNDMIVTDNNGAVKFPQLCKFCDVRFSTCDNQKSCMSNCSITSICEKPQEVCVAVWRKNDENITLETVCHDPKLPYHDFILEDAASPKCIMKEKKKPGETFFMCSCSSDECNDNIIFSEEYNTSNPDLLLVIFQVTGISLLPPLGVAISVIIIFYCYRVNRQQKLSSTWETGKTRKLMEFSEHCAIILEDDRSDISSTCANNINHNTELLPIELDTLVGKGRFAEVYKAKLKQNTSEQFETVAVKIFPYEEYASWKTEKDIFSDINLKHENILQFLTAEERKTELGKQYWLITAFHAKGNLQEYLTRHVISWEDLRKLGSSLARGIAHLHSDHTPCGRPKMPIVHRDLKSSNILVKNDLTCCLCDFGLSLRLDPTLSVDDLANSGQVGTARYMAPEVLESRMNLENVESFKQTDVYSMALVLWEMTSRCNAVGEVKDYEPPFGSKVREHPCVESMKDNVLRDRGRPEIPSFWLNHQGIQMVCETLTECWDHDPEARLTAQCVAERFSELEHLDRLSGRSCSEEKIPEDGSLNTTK

Sequence of TGF-beta receptor type-1 (P36897 34-503 T204D limits assumed): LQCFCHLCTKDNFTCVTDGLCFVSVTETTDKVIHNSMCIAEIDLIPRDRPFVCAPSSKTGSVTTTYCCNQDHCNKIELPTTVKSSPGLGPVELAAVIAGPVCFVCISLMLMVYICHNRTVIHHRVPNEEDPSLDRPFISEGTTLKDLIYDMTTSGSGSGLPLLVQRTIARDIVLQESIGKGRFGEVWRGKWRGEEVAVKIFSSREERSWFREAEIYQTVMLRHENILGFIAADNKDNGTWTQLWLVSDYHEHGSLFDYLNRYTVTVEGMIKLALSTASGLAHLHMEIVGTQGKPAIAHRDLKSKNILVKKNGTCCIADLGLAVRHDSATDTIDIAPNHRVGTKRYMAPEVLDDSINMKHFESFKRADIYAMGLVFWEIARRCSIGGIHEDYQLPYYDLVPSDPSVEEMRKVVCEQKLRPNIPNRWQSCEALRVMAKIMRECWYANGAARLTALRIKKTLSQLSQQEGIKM

Row | Structure (SMILES) | IC50 [1] [nM] | IC50 [2] [µM]
1 | Cc1cccc(-c2ncccc2-c2ccc3ncc(C(=O)O)n3c2)n1 | 4 | 
2 | N#Cc1cnc2ccc(-c3cccnc3-c3cccc(C(F)(F)F)n3)cn12 | 11 | > 15
3 | CNC(=O)c1cnc2ccc(-c3cccnc3-c3cccc(C)n3)cn12 | 2 | > 15
4 | Cc1cccc(-c2ncccc2-c2ccn3ncc(C(N)=O)c3n2)n1 | 6 | > 15
